According to publication PMC10447463, “Data-mining unveils structure–property–activity correlation of viral infectivity enhancing self-assembling peptides” (Nature Communications, 2023):
Like-named read-outs stand apart in the source and are kept apart here.

Tests used:
[1] = tested on: HIV-1 infection of TZM-bl cells; test: HIV-1 infectivity enhancement assay, β-galactosidase luminescence; format: cell-based; settings: for Rel-EFC: infection relative to EF-C (QCKIKQIINMWQ = 1); for Log10 Infection Rel EFC: log10 of infection relative to EF-C; for Log Infectivity: Fig. S7 panel A (plotted against β-sheet content), Log10 infection relative to EF-C, asymmetric std dev errors; for Log10 Infection Rel EF-C: HIV-1 infection of TZM-bl cells; for Log10 of Rel to EFC (Feb2021): Log10 of infection relative to EF-C; for Abs. Infection at 0.26 µM / Infect 1 0.26 µM / Infect 2 0.26 µM / Infect 3 0.26 µM: peptide 0.26 µM; for Abs. Infection at 0.26 µM / Abs. Infection at 1.3 µM: mean of n = 3, Figure 4A; for Infect 1 0.26 µM / Infect 1 .3 µM: replicate 1, absolute infection signal; for Infect 1 0.26 µM / Infect 2 0.26 µM / Infect 3 0.26 µM / Infect 1 .3 µM / Infect 2 1.3µM / Infect 3 1.3 µM: Figure 4A; for Infect 2 0.26 µM / Infect 2 1.3µM: replicate 2, absolute infection signal; for Infect 3 0.26 µM / Infect 3 1.3 µM: replicate 3, absolute infection signal; for Abs. Infection at 1.3 µM / Infect 1 .3 µM / Infect 2 1.3µM / Infect 3 1.3 µM: peptide 1.3 µM; for Abs. Inf.: β-galactosidase luminescence; for Abs. Inf. / RLU s-1: absolute infection rate, peptide 1.3 µM on cells, virus preincubated 10 min with fibrils, read 3 days post infection, mean of triplicate
[2] = format: physicochemical; settings: for ThT Cat. / ThT-Fluorescence (categorical): ThT-active if fluorescence at least twice the control; for Rel. ThT: n-fold ThT fluorescence vs control (PBS, 10% DMSO), 4 µL 1 mg/mL fibrils + 20 µL 50 µM ThT, 15 min RT, ex 440 / em 488 nm, triplicate
Summary of the method: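 Fibrils (1 mg/mL solution) were mixed with 50 µM ThT in PBS for 15 min at RT, and fluorescence was read at λex 440/λem 488 nm against a PBS blank, as a triplicate mean ± SD. Zeta potential came from electrophoretic mobility (Smoluchowski) after 1 d aggregation at 1 mg/mL in PBS pH 7.4, diluted into 1 mM KCl.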

[3] = β-sheet content by ATR-FT-IR; format: physicochemical; settings: for b -sheet / %: Fig. S7 panel A, β-sheet content by ATR-FT-IR; for ß-sheet / %: ATR-FT-IR of lyophilised 1 mg/mL PNF solution, peak integral ratio 1625-1635 cm-1, measured once
Protocol: For ATR FT–IR spectroscopy measurements, 200 µL of the respective 1 mg/mL PNF solution was lyophilized and the resulting powder used for measurement. All spectra were recorded on a Bruker Tensor 27 spectrometer with a diamond crystal as ATR element (PIKE MiracleTM, spectral resolution 2 cm^-1). Every sample was measured with 64 scans. Data were analyzed with OriginLab software and calculation of β–sheet content was conducted according to a previous report. TEM. For TEM measurements 5 µL of PNF fibrils (1 mg/mL) were placed on copper grids coated with carbon and formvar layer (300 mesh, Plano GmbH). After 10 min incubation time, the grids were staining with 4% uranyl acetate solution for 2.5 min and washed with water. Measurements were performed on a Jeol 1400 electron microscope with 120 kV acceleration voltage. CR Assay. For the determination of the amount of peptide monomer converting into nanostructures the amine reactive dye fluorescamine was used analogous to a previous reported protocol. Briefly, 100 µL of the preformed PNF solution was centrifuged in a Vivaspin 500 tube (3 kDa MWCO) to separate fibers from free peptide monomer (16200 x g, 4 °C, 45 min). The filtrate and 100 μL of the non-filtered PNF sample were lyophilized and dissolved in 30 μL DMSO. 10 μL of the filtrate and non-filtered DMSO samples were submitted in a black UV Star® 384 microliter well–plates (Greiner bio–one) and 3 μL of the fluorescamine solution (10 mg/mL, DMSO) was added to measure the fluorescence enhancement. After 20 min of incubation at RT, fluorescence was recorded on an Infinite® M1000 PRO microplate reader (Tecan) at λem = 470 nm upon excitation at λex = 365 nm with 10 nm bandwidths and multiple reads per well (3×3). Measurements were repeated in triplicates and averaged with standard deviation. All values were calculated as n-fold fluorescence enhancement (DMSO only as a reference was set to 1). The conversion rate CR was defined according to the equation Eq. (3).3 CR=100−100×fluorescenceintensityfiltrate/fluorescenceintensityoriginal[%]

[4] = Log10 of infection rate relative to EF-C, Figure 3A source data
[5] = infection rate relative to EF-C, log10, data of Figure 2D
[6] = infection rate relative to EF-C, log10, source data of Figure 2C
[7] = ThT fluorescence category, 1 if Rel. ThT >2
[8] = absolute HIV-1 infection signal, TZM-bl cells
[9] = HIV-1 infection relative to EF-C, Fig 23 plot, panels A and B, mean of 3 values
[10] = HIV-1 infection relative to EF-C, Fig 23 plot, single data point, replicate 2
[11] = HIV-1 infection relative to EF-C, Fig 23 plot, single data point, replicate 3
[12] = n-fold infection vs virus only, relative to that of EF-C, 1.3 µM peptide

| Substance | Rel-EFC ([1]; 1.3 µM peptide) | Log10 Infection Rel EFC ([1]; 1.3 µM peptide) | Log Infectivity ([1]; TZM-bl cells) | Log10 Infection Rel EF-C [1, 4] | Log10 Infection Rel EF-C [1, 5] | Log10 Infection Rel EF-C [1, 6] | Log10 of Rel to EFC (Feb2021) ([1]; all peptides of FigS16) | Tht category (> 2 to blank = +) ([2]; Fig S10 panel D) | ThT Cat, ([2]; ThT category, 1 if Rel. ThT >2) | ThT Cat. [2, 7] | ThT Cat. / ThT-Fluorescence (categorical) [2] | b -sheet / % [3] [%] | ThT Cat. ([2]; ThT category, 1 if Rel. ThT >2) | Tht category (> 2 to blank = +) ([2]; FigS12 panel A) | ThT Cat, ([2]; FigS12 panel B) | also measured |
| --- | --- | --- | --- | --- | --- | --- | --- | --- | --- | --- | --- | --- | --- | --- | --- | --- |
| HHHHKIKIKIKIYYYY | 0,68 | -0,17 | -0.1685 | -0.17 | -0.1685 | -0.1685 | -0.17 | 1 (ThT. Cat is 1, if Rel. ThT >2) | 1 (ThT. Cat is 1, if Rel. ThT >2) | 1 (ThT. Cat is 1, if Rel. ThT >2) | 1 (ThT. Cat is 1, if Rel. ThT >2) | 53.27 | – | – | – | Log10 of Rel to EFC (Feb2021) ([1]; second listing, peptides with TEM 2cat 0): -0.17; Abs. Infection at 0.26 µM [1]: 8963; Infect 1 0.26 µM [1]: 7733.33; Infect 2 0.26 µM [1]: 6433.33; Infect 3 0.26 µM [1]: 12723.33; Abs. Infection at 1.3 µM [1]: 20713.33333; Infect 1 .3 µM [1]: 24723.33; Infect 2 1.3µM [1]: 15203.33; Infect 3 1.3 µM [1]: 22213.33; beta sheet ([3]; peptides with TEM 2cat 0): 53 |
| IKVAVKIKIQINM | 0,5 | -0,3 | -0.3046 | -0.3 | -0.3046 | -0.3046 | -0.3 | 0 (ThT-inactive (N-Fold <2)) | 0 (ThT-inactive (N-Fold <2)) | – | 0 (ThT-inactive (N-Fold <2)) | 58.1 | 0 (ThT-inactive (N-Fold <2)) | – | – | Abs. Inf. [1, 8]: 17920 |
| ILKNLSRSRKIKIQIC | 0,34 | -0,47 | -0.4741 | -0.47 | -0.4741 | -0.4741 | -0.47 | 1 (ThT. Cat is 1, if Rel. ThT >2) | 1 (ThT. Cat is 1, if Rel. ThT >2) | 1 (ThT. Cat is 1, if Rel. ThT >2) | 1 (ThT. Cat is 1, if Rel. ThT >2) | 37.6 | – | – | – | – |
| ILKNLSRSRKIKIQINMWQ | 0,32 | -0,49 | -0.4939 | -0.49 | -0.4939 | -0.4939 | -0.49 | 1 (ThT. Cat is 1, if Rel. ThT >2) | 1 (ThT. Cat is 1, if Rel. ThT >2) | – | 1 (ThT. Cat is 1, if Rel. ThT >2) | 39.13 | 1 (ThT. Cat is 1, if Rel. ThT >2) | – | – | Abs. Inf. [1, 8]: 1797 |
| KAKAKAQA | 0,01 | -2,06 | -2.06 | -2.06 | -2.06 | -2.06 | – | 0 (ThT-inactive (N-Fold <2)) | 0 (ThT-inactive (N-Fold <2)) | 0 (ThT-inactive (N-Fold <2)) | 0 (ThT-inactive (N-Fold <2)) | 39.62 | – | 0 (ThT-inactive (N-Fold <2)) | 0 (ThT-inactive (N-Fold <2)) | – |
| KAKAQANM | 0,01 | -2,05 | -2.046 | -2.05 | -2.046 | -2.046 | – | 0 (ThT-inactive (N-Fold <2)) | 0 (ThT-inactive (N-Fold <2)) | 0 (ThT-inactive (N-Fold <2)) | 0 (ThT-inactive (N-Fold <2)) | 32.8491 | – | 0 (ThT-inactive (N-Fold <2)) | 0 (ThT-inactive (N-Fold <2)) | Inf. rel. EF-C [1, 9]: 0.02204; Inf. rel. EF-C ([1]; HIV-1 infection relative to EF-C, Fig 23 plot, single data point, replicate 1): 0.03965; Inf. rel. EF-C [1, 10]: 0.008224; Inf. rel. EF-C [1, 11]: 0.01824; Abs. Inf. / RLU s-1 [1]: 497 RLU s-1; Inf. rel. EF-C [1, 12]: 0.01; Rel. ThT [2]: 1.1; ß-sheet / % [3]: 33% |
| KFKFEFEF | 0,03 | -1,55 | -1.547 | -1.55 | -1.547 | -1.547 | – | 1 (ThT. Cat is 1, if Rel. ThT >2) | 1 (ThT. Cat is 1, if Rel. ThT >2) | 1 (ThT. Cat is 1, if Rel. ThT >2) | 1 (ThT. Cat is 1, if Rel. ThT >2) | 40.95 | – | 1 (ThT. Cat is 1, if Rel. ThT >2) | 1 (ThT. Cat is 1, if Rel. ThT >2) | – |
| KFKFQFF | 0,12 | -0,91 | -0.9142 | -0.91 | -0.9142 | -0.9142 | -0.91 | 1 (ThT. Cat is 1, if Rel. ThT >2) | 1 (ThT. Cat is 1, if Rel. ThT >2) | 1 (ThT. Cat is 1, if Rel. ThT >2) | 1 (ThT. Cat is 1, if Rel. ThT >2) | 48.35 | – | – | – | Abs. Infection at 0.26 µM [1]: 476.7; Infect 1 0.26 µM [1]: 343.33; Infect 2 0.26 µM [1]: 603.33; Infect 3 0.26 µM [1]: 483.33; Abs. Infection at 1.3 µM [1]: 2850; Infect 1 .3 µM [1]: 3623.33; Infect 2 1.3µM [1]: 2253.33; Infect 3 1.3 µM [1]: 2673.33 |
| KFKFQFN | 0,02 | -1,74 | -1.744 | -1.74 | -1.744 | -1.744 | – | 0 (ThT-inactive (N-Fold <2)) | 0 (ThT-inactive (N-Fold <2)) | – | 0 (ThT-inactive (N-Fold <2)) | 38.13 | 0 (ThT-inactive (N-Fold <2)) | 0 (ThT-inactive (N-Fold <2)) | 0 (ThT-inactive (N-Fold <2)) | Inf. rel. EF-C [1, 9]: 0.01184; Inf. rel. EF-C [1, 10]: 0.01096; Inf. rel. EF-C [1, 11]: 0.005798; Abs. Inf. / RLU s-1 [1]: 270 RLU s-1; Abs. Inf. ([1]; absolute infection signal, HIV-1 on TZM-bl cells): 270; Log10 Inf. rel. to EF-C ([1]; log10 of HIV-1 infection of TZM-bl cells relative to EF-C (EF-C = 0)): -1.744; Inf. rel. EF-C [1, 12]: 0.02; Rel. ThT [2]: 1.1; ß-sheet / % [3]: 38% |
